Measured values reported in patent US6900219B2, “ABCA-1 elevating compounds” (CV Therapeutics, Inc., priority 2002, dated 2005).

Test system: ABCA-1 gene
Assay: compounds tested and found to elevate cellular expression of the ABCA-1 gene (Examples 1-6; test not named)
Assay type: cell-based
Protocol: Activity testing is conducted as described in those patents and patent applications referenced above, and in the Examples below, and by methods apparent to one skilled in the art.

Compound	cellular expression of the ABCA-1 gene
CC(C)CN(C(=O)Nc1cccc(Cl)c1)C(C)c1nc2ccccc2c(=O)n1-c1ccc2ccccc2c1 (centres unmarked) [[(3-chlorophenyl)amino]-N-(2-methylpropyl)-N-[(3-(2-naphthyl)-4-oxo(3-hydroquinazolin-2-yl))ethyl]carboxamide]	elevate cellular expression of the ABCA-1 gene
CCOC(=O)C1=C(NCCc2ccccc2)CCN(C(=O)c2ccc(CC)cc2)C1 [ethyl 1-[(4-ethylphenyl)carbonyl]-4-[(2-phenylethyl)amino]-1,2,5,6-tetrahydropyridine-3-carboxylate]	elevate cellular expression of the ABCA-1 gene
O=C(Nc1nccs1)c1ccc(C(F)(F)F)cc1 [4-trifluoromethylphenyl-N-(1,3-thiazol-2-yl)carboxamide]	elevate cellular expression of the ABCA-1 gene
CN(C)c1ccc(CN(C(=O)Nc2ccccc2F)c2ccc3c(c2)CCC3)cc1 [({[4-(dimethylamino)phenyl]methyl}indan-5-ylamino)-N-(2-fluorophenyl)carboxamide]	elevate cellular expression of the ABCA-1 gene
CCc1cc(OC(=O)c2ccco2)n(-c2cccc(Cl)c2)n1 [1-(3-chlorophenyl)-3-ethylpyrazol-5-yl furan-2-carboxylate]	elevate cellular expression of the ABCA-1 gene
CCOC(=O)C1=C(NCCc2ccccc2)CCN(C(=O)c2ccc(Br)cc2)C1 [ethyl 1-[(4-bromophenyl)carbonyl]-4-[(2-phenylethyl)amino]-1,2,5,6-tetrahydropyridine-3-carboxylate]	elevate cellular expression of the ABCA-1 gene
CC(c1nc2ccccc2c(=O)n1-c1ccc2ccccc2c1)N(CCN(C)C)C(=O)Nc1cccc(C#N)c1 (centres unmarked) [N-[2-(dimethylamino)ethyl][(3-cyanophenyl)amino]-N-[(3-(2-naphthyl)-4-oxo(3-hydroquinazolin-2-yl))ethyl]carboxamide]	elevate cellular expression of the ABCA-1 gene
CCc1c(C(=O)N2CCN(C(=O)c3cccc(Br)c3)C(C)C2)cnn1-c1nc(-c2ccc(Cl)cc2)cs1 (centres unmarked) [[4-(3-bromo-benzoyl)-3-methyl-piperazin-1-yl]-{1-[4-(4-chloro-phenyl)-thiazol-2-yl]-5-ethyl-1H-pyrazol-4-yl}-methanone]	elevate cellular expression of the ABCA-1 gene
CC(C)(C)c1ccc(C(=O)NC2=NC(C(=O)O)CS2)cc1 (centres unmarked) [2-{[4-(tert-butyl)phenyl]carbonylamino}-1,3-thiazoline-4-carboxylic acid]	elevate cellular expression of the ABCA-1 gene
CC(C)(C)c1ccc(C(=O)Nc2ncc(-c3ccccc3)s2)cc1 [[4-(tert-butyl)phenyl]-N-(5-phenyl(1,3-thiazol-2-yl))carboxamide]	elevate cellular expression of the ABCA-1 gene
CCCN(C(=O)Nc1cccc(OC)c1)C(C)c1nc2cc(Cl)ccc2c(=O)n1-c1ccc(C)cc1 (centres unmarked) [N-{[7-chloro-3-(4-methylphenyl)-4-oxo(3-hydroquinazolin-2-yl)]ethyl}[(3-methoxyphenyl)amino]-N-propylcarboxamide]	elevate cellular expression of the ABCA-1 gene
O=C(Nc1ccc(Br)cc1)c1ccc2ccccc2c1 [N-(4-bromophenyl)-2-naphthylcarboxamide]	elevate cellular expression of the ABCA-1 gene
O=C(Nc1nc2ccccc2s1)c1ccco1 [N-benzothiazol-2-yl-2-furylcarboxamide]	elevate cellular expression of the ABCA-1 gene
O=C(Nc1ncc(-c2ccccc2)s1)c1cccc(C(F)(F)F)c1 [N-(5-phenyl(1,3-thiazol-2-yl))[3-(trifluoromethyl)phenyl]carboxamide]	elevate cellular expression of the ABCA-1 gene
Cc1ccc(NC(=O)Nc2ccc(Cl)cc2)cc1C [N-(3,4-dimethylphenyl)[(4-chlorophenyl)amino]carboxamide]	elevate cellular expression of the ABCA-1 gene
O=C(NC1=NC(C(=O)O)CS1)c1cc(C(F)(F)F)cc(C(F)(F)F)c1 (centres unmarked) [2-[(3,5-bistrifluoromethylphenyl)carbonylamino]-1,3-thiazoline-4-carboxylic acid]	elevate cellular expression of the ABCA-1 gene
O=C(CCC1CCCC1)Nc1ccc2c(c1)OCCO2 [N-(2H,3H-benzo[e]1,4-dioxin-6-yl)-3-cyclopentylpropanamide]	elevate cellular expression of the ABCA-1 gene
N#Cc1ccc(C(=O)Nc2nc(-c3ccc4ccccc4c3)cs2)cc1 [(4-cyanophenyl)-N-(4-(2-naphthyl)(1,3-thiazol-2-yl))carboxamide]	elevate cellular expression of the ABCA-1 gene
Fc1cccc(CSc2ncc3ccccn23)c1 [3-[(3-fluorophenyl)methylthio]-4-hydroimidazolo[1,5-a]pyridine]	elevate cellular expression of the ABCA-1 gene
O=C(NC1=NCCS1)c1ccccc1 [phenyl-N-(1,3-thiazolin-2-yl)carboxamide]	elevate cellular expression of the ABCA-1 gene
[4-(tert-butyl)phenyl]-N-(4-naphthyl(1,3-thiazol-2-yl))carboxamide	elevate cellular expression of the ABCA-1 gene

Compound	cellular expression of the ABCA-1 gene
Clc1ccc(-c2cc(-c3ccccc3)[nH]n2)cc1 [3-(4-chlorophenyl)-5-phenylpyrazole]	elevate cellular expression of the ABCA-1 gene
Cc1ccc(NC(=O)c2ccccc2N)cc1 [(2-aminophenyl)-N-(4-methylphenyl)carboxamide]	elevate cellular expression of the ABCA-1 gene
O=C(Nc1nc2c(Cl)cccc2s1)c1cccs1 [N-(4-chlorobenzothiazol-2-yl)-2-thienylcarboxamide]	elevate cellular expression of the ABCA-1 gene
O=C1CSC(NC(=O)c2ccc(OC(F)(F)F)cc2)=N1 [(4-trifluoromethoxyphenyl)-N-(4-oxo(1,3-thiazolin-2-yl))carboxamide]	elevate cellular expression of the ABCA-1 gene
CCn1c2ccccc2c2cc(NC(=O)c3ccc(F)cc3)ccc21 [N-(9-ethylcarbazol-3-yl)(4-fluorophenyl)carboxamide]	elevate cellular expression of the ABCA-1 gene
Cc1ccc(C(=O)NC2=NCCS2)cc1 [(4-methylphenyl)-N-(1,3-thiazolin-2-yl)carboxamide]	elevate cellular expression of the ABCA-1 gene
2-[({2-[4-(6-chlorobenzothiazol-2-yl)piperazinyl]ethyl}oxycarbonyl)methylthio]acetic acid	elevate cellular expression of the ABCA-1 gene
CCCn1c(C(CC)N(Cc2ccccc2)C(=O)CC(C)CC(C)(C)C)nc2ccccc2c1=O (centres unmarked) [3,5,5-trimethylhexanoic acid benzyl-[1-(4-oxo-3-propyl-3,4-dihydro-quinazolin-2-yl)propyl]-amide]	elevate cellular expression of the ABCA-1 gene
O=C(Nc1nc2ccccc2s1)c1cc(C(F)(F)F)cc(C(F)(F)F)c1 [N-benzothiazol-2-yl[3,5-bis(trifluoromethyl)phenyl]carboxamide]	elevate cellular expression of the ABCA-1 gene
CCn1c2ccccc2c2cc(NC(=O)c3ccc(OC)cc3)ccc21 [N-(9-ethylcarbazol-3-yl)(4-methoxyphenyl)carboxamide]	elevate cellular expression of the ABCA-1 gene
CCOC(=O)C1=C(NCCc2ccccc2)CCN(C(=O)c2ccc(C)cc2)C1 [ethyl 1-[(4-methylphenyl)carbonyl]-4-[(2-phenylethyl)amino]-1,2,5,6-tetrahydropyridine-3-carboxylate]	elevate cellular expression of the ABCA-1 gene
CCCCN(C(=O)Nc1ccc(OC)cc1)C(C)c1nc2ccccc2c(=O)n1-c1ccc(Br)cc1 (centres unmarked) [N-{[3-(4-bromophenyl)-4-oxo(3-hydroquinazolin-2-yl)]ethyl}-N-butyl[(4-methoxyphenyl)amino]carboxamide]	elevate cellular expression of the ABCA-1 gene
Cc1ccc(-c2csc(-n3ncc(C(=O)NC4CC5CCC4C5)c3C)n2)cc1 (centres unmarked) [N-bicyclo[2.2.1]hept-2-yl {5-methyl-1-[4-(4-methylphenyl)(1,3-thiazol-2-yl)]pyrazol-4-yl}carboxamide]	elevate cellular expression of the ABCA-1 gene
Cc1cc(C(=O)Nc2ncc(-c3ccccc3)s2)c(C)o1 [(2,5-dimethyl(3-furyl))—N-(5-phenyl(1,3-thiazol-2-yl))carboxamide]	elevate cellular expression of the ABCA-1 gene
O=C(Nc1nc2ccccc2s1)c1cc2ccccc2s1 [benzo[b]thiophen-2-yl-N-benzothiazol-2-ylcarboxamide]	elevate cellular expression of the ABCA-1 gene
Cc1ccc2nc(-c3ccc(NC(=O)c4ccccc4C)cc3)sc2c1 [N-[4-(6-methylbenzothiazol-2-yl)phenyl](2-methylphenyl)carboxamide]	elevate cellular expression of the ABCA-1 gene
O=C1CSC(NC(=O)c2cccc(Cl)c2)=N1 [(3-chlorophenyl)-N-(4-oxo(1,3-thiazolin-2-yl))carboxamide]	elevate cellular expression of the ABCA-1 gene
COc1ccc(C(=O)NC2=NC(C(=O)O)CS2)cc1 (centres unmarked) [2-[(4-methoxyphenyl)carbonylamino]-1,3-thiazoline-4-carboxylic acid]	elevate cellular expression of the ABCA-1 gene
CCCCNC(=O)N(CCC(C)C)C(C)c1nc2cc(Cl)ccc2c(=O)n1-c1ccc(C)cc1 (centres unmarked) [(butylamino)-N-{[7-chloro-3-(4-methylphenyl)-4-oxo(3-hydroquinazolin-2-yl)]ethyl}-N-(3-methylbutyl)carboxamide]	elevate cellular expression of the ABCA-1 gene
Cc1ccc2nc(-c3ccc(NC(=O)c4ccco4)cc3)sc2c1 [2-furyl-N-[4-(6-methylbenzothiazol-2-yl)phenyl]carboxamide]	elevate cellular expression of the ABCA-1 gene
